Values quoted from earlier work in patent publication US20250235554A1, “METHODS FOR IMPROVING ADENO-[…] (AAV) […]” (Novartis AG, priority 2021, published 2025).

Test system: glymphatic flow
Conditions: mice and rats

Cc1cccc([C@H](C)c2cnc[nH]2)c1C [Dexmedetomidine]
effect on brain and spinal cord exposure of intrathecally administered drugs: increases brain and spinal cord drug exposure of intrathecally administered drugs
